Reference: US5258406A, “Sulfonimidamides” (priority 1992, dated 1993)
Where two headings read alike, the source gives them in different places.

Tested on: 6C3HED lymphosarcoma
Test: animal or person
Assay type: in vivo
Details: for inhibition in vivo at 75 mg/kg: read-out: % inhibition of tumor growth, oral, 75 mg/kg, BIDX 8; for inhibition in vivo at 25 mg/kg: read-out: % inhibition of tumor growth, oral, 25 mg/kg, DX 8; for inhibition in vivo at 50 mg/kg: read-out: % inhibition of tumor growth, oral, 50 mg/kg, DX 8
Protocol: The compounds were tested in C3H mice bearing a 6C3HED lymphosarcoma, also known as the Gardner lymphosarcoma (GLS), and in a variety of human tumor xenografts in CD1 nu/nu mice, including CX-1, LX-1, HXGC3, and VRC5. The 6C3HED lymphosarcoma was obtained from the Division of Cancer Treatment, National […] Institute, Tumor Bank, maintained at E. G. and G. Mason Research (Worcester, Mass.). The CX-1 human colon carcinoma and the LX-1 human lung carcinoma xenografts were obtained from the National Cancer Institute. The HXGC3 and VRC5 human colon xenografts were obtained from Dr. P. J. Houghton, St. Jude Children's Hospital in Memphis (see Br. J. Cancer, 37, 213 (1978)). First passage tumor was stored in liquid nitrogen using standard techniques. The transplanted tumor was reestablished from the Tumor Bank every six months or as needed. The tumor was maintained by serial passage twice weekly in C3H mice.
In the procedure the tumor was removed from passage animals and minced into 1- to 3-mm square fragments using sterile techniques. Tumor pieces were checked for sterility using both Antibiotic Medium 1 and Brain Heart Infusion (Difco, Detroit, Mich.). Recipient mice were shaved and tumor pieces were implanted subcutaneously in the auxiliary region by trocar. Drug therapy on the appropriate schedule was initiated on the day after tumor implant for 6C3HED and after a seven (7) day delay for xenografts (or other delay as noted in Table 2). The compound being tested was mixed with 2.5% Emulphor EL620 from GAF Corporation (1:40 dilution in saline). Food and water were provided ad libitium. The drug was administered orally in 0.5 ml of 2.5% Emulphor (unless otherwise indicated). The tumor was measured the day after treatment ended with two dimensional measurements (width and length) of the tumor taken using automated digital calipers interfaced to a microcomputer. Approximate weight for the tumor was calculated using the following formula [Worzalla, J. F., et al., Invest. New Drugs, 8, 241 (1990], (tumor weight in mg)=(width in mm)^2 ×(length in mm)/2.
At least one control group of an equal number of mice was treated with the same volume of 2.5% Emulphor only. The percent inhibition was determined by subtracting the ratio of the mean tumor size of the test group relative to the control group from one and multiplying the result times 100.
The results of several experiments in mice bearing a 6C3HED lymphosarcoma (or other tumor where indicated) when the indicated compounds were administered are provided in Table 2. In Table 2, column 1 gives the Example number of the compound used, column 2 lists the dose level in mg/kg, column 3 provides the percent inhibition of tumor growth, column 4 gives the number of mice which died relative to the total number of animals in the group, column 5 gives the method of administration of the compound, and column 6 gives the dosage schedule. The protocol used with other tumors was the same as with the 6C3HED lymphosarcoma.

[1] = Mus musculus, 6C3HED, po, read-out: % inhibition of tumor growth, oral, 150 mg/kg, BIDX 8
[2] = Mus musculus, 6C3HED, po, read-out: % inhibition of tumor growth, oral, 300 mg/kg, BIDX 8
[3] = Mus musculus, 6C3HED, ip, read-out: % inhibition of tumor growth, IP, 150 mg/kg, DX 8

SMILES: Cc1ccc(S(=O)(=NC(=O)Nc2ccc(Cl)cc2)NCCc2ccccc2)cc1 (centres unmarked) [Example 13]
- inhibition in vivo at 150 mg/kg [1]: 39%
- inhibition in vivo at 300 mg/kg [2]: 48%
- Tox/Tot (mice which died / total) (oral, 150 mg/kg, BIDX 8): 0/10
- Tox/Tot (mice which died / total) (oral, 300 mg/kg, BIDX 8): 0/10

SMILES: CN=S(=O)(NC(=O)Nc1ccc(Cl)cc1)c1ccc2c(c1)CCC2 (centres unmarked) [Example 55, N-[[(4-chlorophenyl)amino]carbonyl]-N'-methyl-5-indanylsulfonimidamide]
- inhibition in vivo at 75 mg/kg (Mus musculus, 6C3HED, po): 70%
- inhibition in vivo at 150 mg/kg [1]: 75%
- Tox/Tot (mice which died / total) (oral, 75 mg/kg, BIDX 8): 0/10
- Tox/Tot (mice which died / total) (oral, 150 mg/kg, BIDX 8): 1/10

SMILES: CC(=O)N(C)S(=O)(=NC(=O)Nc1ccc(Cl)cc1)c1ccc(C)c(C)c1 (centres unmarked) [Example 63]
- inhibition in vivo at 25 mg/kg (Mus musculus, 6C3HED, po): 79%
- inhibition in vivo at 50 mg/kg (Mus musculus, 6C3HED, po): 95%
- Tox/Tot (mice which died / total) (oral, 25 mg/kg, DX 8): 0/10
- Tox/Tot (mice which died / total) (oral, 50 mg/kg, DX 8): 0/10

SMILES: Cc1ccc(S(=O)(=NC(=O)Nc2ccc(Cl)cc2)NCC(C)C)cc1 (centres unmarked) [Example 8]
- inhibition in vivo at 18.75 mg/kg (Mus musculus, 6C3HED, po, read-out: % inhibition of tumor growth, oral, 18.75 mg/kg, BIDX 8): 29%
- inhibition in vivo at 25 mg/kg (Mus musculus, 6C3HED, po): 28%
- inhibition in vivo at 37.5 mg/kg (Mus musculus, 6C3HED, po, read-out: % inhibition of tumor growth, oral, 37.5 mg/kg, BIDX 8): 60%
- inhibition in vivo at 50 mg/kg (Mus musculus, 6C3HED, po): 31%
- inhibition in vivo at 75 mg/kg (Mus musculus, 6C3HED, po): 85%
- inhibition in vivo at 100 mg/kg (Mus musculus, 6C3HED, po, read-out: % inhibition of tumor growth, oral, 100 mg/kg, DX 8): 51%
- inhibition in vivo at 150 mg/kg [1]: 97%
- Tox/Tot (mice which died / total) (oral, 18.75 mg/kg, BIDX 8): 0/10
- Tox/Tot (mice which died / total) (oral, 25 mg/kg, DX 8): 0/10
- Tox/Tot (mice which died / total) (oral, 37.5 mg/kg, BIDX 8): 0/10
- Tox/Tot (mice which died / total) (oral, 50 mg/kg, DX 8): 0/10
- Tox/Tot (mice which died / total) (oral, 75 mg/kg, BIDX 8): 0/10
- Tox/Tot (mice which died / total) (oral, 100 mg/kg, DX 8): 0/10
- % inhibition of tumor growth (oral, 150 mg/kg, BIDX 8): 98%
- % inhibition of tumor growth (oral, 300 mg/kg, BIDX 8): TOX
- Tox/Tot (mice which died / total) (oral, 300 mg/kg, BIDX 8): 10/10

SMILES: N=S(=O)(NC(=O)Nc1ccc(Cl)cc1)c1ccc(C=O)cc1 (centres unmarked) [Example 51, N-[[(4-chlorophenyl)amino]carbonyl]-4-formylbenzenesulfonimidamide]
- Tox/Tot (mice which died / total) (IP, 150 mg/kg, DX 8): 0/10
- Tox/Tot (mice which died / total) (IP, 300 mg/kg, DX 8): 9/10
- inhibition in vivo at 150 mg/kg [3]: 80%
- inhibition in vivo at 300 mg/kg (Mus musculus, 6C3HED, ip, read-out: % inhibition of tumor growth, IP, 300 mg/kg, DX 8): 99%

SMILES: Cc1cc(S(N)(=O)=NC(=O)Nc2ccc(Cl)cc2)cc(C)c1Cl (centres unmarked) [Example 61]
- Tox/Tot (mice which died / total) (IP, 150 mg/kg, DX 8): 2/10
- % inhibition of tumor growth (IP, 300 mg/kg, DX 8): TOX
- Tox/Tot (mice which died / total) (IP, 300 mg/kg, DX 8): 10/10
- inhibition in vivo at 150 mg/kg [3]: 72%
- inhibition in vivo at 150 mg/kg [1]: 0%
- inhibition in vivo at 300 mg/kg [2]: 0%
- Tox/Tot (mice which died / total) (oral, 150 mg/kg, BIDX 8): 0/10
- Tox/Tot (mice which died / total) (oral, 300 mg/kg, BIDX 8): 0/10

SMILES: CNS(=O)(=NC(=O)N(C)c1ccc(Cl)cc1)c1ccc(C)cc1 (centres unmarked) [Example 65]
- inhibition in vivo at 150 mg/kg [1]: 91%
- inhibition in vivo at 300 mg/kg [2]: 97%
- Tox/Tot (mice which died / total) (oral, 150 mg/kg, BIDX 8): 0/10
- Tox/Tot (mice which died / total) (oral, 300 mg/kg, BIDX 8): 0/10
